Results: ChEMBL document CHEMBL5584291, “Rational design of small-sized peptidomimetic inhibitors disrupting protein-protein interaction” (RSC Med Chem, 2024)
*1 amine or outer side, *2 acyl side, *3 side chain or, on linkers, in order; H or OH if unused. Where a SMILES comes first, the peptide text is derived from it. Bridges are numbered along the chain shown (N, C = ends). [ ]: non-standard residue; d: D form. The star is where a group is joined. ξ: configuration not given here. X2 = c1ccc(-c2cn(CC3CCCCC3)c([C@@H]3CCCN3*)n2)cc1; dαMeDab = C[C@](CCN[*:3])(N[*:1])C(=O)[*:2]; X1 = NC(CO)C(=O)NC(Cc1ccccc1)C(=O)NCCCCN*; Ala(cPent) = N[C@@H](CC1CCCC1)C(=O)O; Arg(Me) = CNC(=N)NCCC[C@H](N)C(=O)O; d(αMeK) = C[C@@](N)(CCCCN)C(=O)O; Pentanoyl(4-Me) = CC(C)CCC(=O)*; dPhg = N[C@@H](C(=O)O)c1ccccc1; Isobutyryl = CC(C)C(=O)*; ξE = NC(CCC(=O)O)C(=O)O; Abu = CC[C@H](N)C(=O)O; Dap = NC[C@H](N)C(=O)O

Tests used:
Splenocyte = experiment: Inhibition of mouse splenocyte proliferation at 100 nM relative to control; format: functional
[1] = target: Programmed cell death protein 1/Programmed cell death 1 ligand 1 (Homo sapiens, UniProt Q15116+Q9NZQ7); experiment: Inhibition of PD-1/PD-L1 (unknown origin) protein-protein interaction by HTRF assay; format: protein-complex assay
Programmed cell death protein 1/Programmed cell death 1 ligand 1, sequence (Q15116 whole entry): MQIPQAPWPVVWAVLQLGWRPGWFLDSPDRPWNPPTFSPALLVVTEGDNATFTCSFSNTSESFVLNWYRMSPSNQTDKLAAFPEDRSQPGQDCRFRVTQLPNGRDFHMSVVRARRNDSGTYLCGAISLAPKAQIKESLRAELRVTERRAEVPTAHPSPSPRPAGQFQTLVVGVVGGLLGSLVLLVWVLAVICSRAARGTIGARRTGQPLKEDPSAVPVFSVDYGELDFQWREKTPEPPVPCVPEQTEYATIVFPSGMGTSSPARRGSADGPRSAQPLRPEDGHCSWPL
Programmed cell death protein 1/Programmed cell death 1 ligand 1, sequence (Q9NZQ7 whole entry): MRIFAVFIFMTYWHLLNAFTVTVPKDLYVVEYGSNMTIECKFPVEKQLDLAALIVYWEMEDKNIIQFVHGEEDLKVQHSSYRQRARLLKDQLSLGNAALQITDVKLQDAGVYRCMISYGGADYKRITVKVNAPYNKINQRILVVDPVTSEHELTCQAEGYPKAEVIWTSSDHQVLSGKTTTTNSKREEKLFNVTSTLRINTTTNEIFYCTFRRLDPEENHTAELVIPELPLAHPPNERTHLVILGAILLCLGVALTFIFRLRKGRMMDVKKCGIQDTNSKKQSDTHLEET

B16-F10 = experiment: Antitumor activity against mouse B16-F10 cells xenografted in C57BL/6 mouse assessed as reduction in lung metastasis at 5 mg/kg, ip administered once daily for 14 days relative to control; format: functional; parameters: scale not given: the % may be the effect or the level left; conditions: time 14 day
[2] = Inhibition of human full length WDR5/RbBP5 (1 to 538 residues)/ASH2L (1 to 635 residues) expressed in Rosetta2 BL21 (DE3) pLysS incubated for 90 mins by SPA based histone methyltransferase assay
[3] = target: Histone-lysine N-methyltransferase, H3 lysine-79 specific (Homo sapiens, UniProt Q8TEK3); experiment: Binding affinity to DOT1L (unknown origin) assessed as inhibition constant
Histone-lysine N-methyltransferase, H3 lysine-79 specific, sequence (Q8TEK3 whole entry): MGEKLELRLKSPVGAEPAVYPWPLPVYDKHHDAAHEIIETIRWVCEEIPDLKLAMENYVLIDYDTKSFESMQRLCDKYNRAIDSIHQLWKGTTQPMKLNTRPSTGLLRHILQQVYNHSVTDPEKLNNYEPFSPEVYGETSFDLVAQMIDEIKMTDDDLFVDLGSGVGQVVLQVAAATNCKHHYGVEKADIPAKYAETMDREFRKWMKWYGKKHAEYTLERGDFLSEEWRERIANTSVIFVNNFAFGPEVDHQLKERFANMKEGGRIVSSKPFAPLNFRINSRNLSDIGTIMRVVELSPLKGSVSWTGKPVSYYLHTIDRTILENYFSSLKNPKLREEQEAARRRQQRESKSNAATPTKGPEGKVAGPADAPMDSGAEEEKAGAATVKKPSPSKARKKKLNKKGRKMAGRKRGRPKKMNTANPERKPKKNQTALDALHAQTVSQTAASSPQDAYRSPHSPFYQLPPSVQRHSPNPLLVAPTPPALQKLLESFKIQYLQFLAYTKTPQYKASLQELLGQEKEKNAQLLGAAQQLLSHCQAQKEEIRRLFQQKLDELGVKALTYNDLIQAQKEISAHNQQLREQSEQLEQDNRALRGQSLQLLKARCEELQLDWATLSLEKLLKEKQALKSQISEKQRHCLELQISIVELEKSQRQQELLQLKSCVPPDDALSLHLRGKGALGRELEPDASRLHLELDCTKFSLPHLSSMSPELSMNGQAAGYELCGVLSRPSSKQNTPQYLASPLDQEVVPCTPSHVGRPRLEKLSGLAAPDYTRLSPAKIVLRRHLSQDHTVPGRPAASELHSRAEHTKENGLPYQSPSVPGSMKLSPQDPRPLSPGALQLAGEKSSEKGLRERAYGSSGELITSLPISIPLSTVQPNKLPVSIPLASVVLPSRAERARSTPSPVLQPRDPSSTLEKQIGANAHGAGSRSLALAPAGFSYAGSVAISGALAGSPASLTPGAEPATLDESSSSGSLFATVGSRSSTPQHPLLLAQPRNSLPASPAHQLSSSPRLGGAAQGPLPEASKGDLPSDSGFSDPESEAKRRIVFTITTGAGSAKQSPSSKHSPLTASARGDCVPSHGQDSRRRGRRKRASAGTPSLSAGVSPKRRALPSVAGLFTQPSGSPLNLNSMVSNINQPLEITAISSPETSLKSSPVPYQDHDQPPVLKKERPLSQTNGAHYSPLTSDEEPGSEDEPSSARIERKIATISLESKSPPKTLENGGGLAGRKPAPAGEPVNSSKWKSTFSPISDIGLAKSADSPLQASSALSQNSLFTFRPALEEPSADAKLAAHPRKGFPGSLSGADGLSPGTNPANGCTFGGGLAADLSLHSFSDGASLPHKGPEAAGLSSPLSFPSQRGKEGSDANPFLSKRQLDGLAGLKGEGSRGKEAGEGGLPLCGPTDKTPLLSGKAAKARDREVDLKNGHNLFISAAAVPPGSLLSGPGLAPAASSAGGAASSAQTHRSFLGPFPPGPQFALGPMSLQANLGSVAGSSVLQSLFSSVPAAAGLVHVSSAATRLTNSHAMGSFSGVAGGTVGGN

Which inhibition at 0.1 µM (Splenocyte) does the source give for `NCCCC[C@H](NC(=O)N[C@@H](CC(N)=O)C(=O)NNC(=O)[C@@H](N)CO)C(=O)O` here?
The inhibition at 0.1 µM was 87%.

For `C[C@H](O)[C@H](NC(=O)N[C@@H](CC(N)=O)C(=O)NNC(=O)[C@@H](N)CO)C(=O)O`, which inhibition at 0.1 µM (Splenocyte) is on record?
The inhibition at 0.1 µM was 68%.

With `CC(O)[C@H](NC(=O)N[C@@H](CC(N)=O)C1NC([C@@H](N)CO)=NO1)C(=O)O` (stereo partly drawn) as the compound, how does the IC50 [1] read?
Its IC50 is 17 nM.

With `C[C@@H](O)[C@@H]1NCC(=O)C(NC(=O)[C@@H](N)CO)CCC(=O)NCCCCC(C(=O)N[C@@H](CO)C(=O)N[C@@H](Cc2ccccc2)C(N)=O)NC(=O)[C@H](CO)NC1=O` (stereo partly drawn) as the compound, how does the Activity (B16-F10) read?
The Activity was 54%.

For `C[C@@H](O)[C@H](NC(=O)[C@H](CC(N)=O)NC(=O)[C@@H](N)CO)C(=O)N[C@@H](CO)C(=O)NC(CCC(=O)NCCCCNC(=O)C(Cc1ccccc1)NC(=O)C(N)CO)C(N)=O` (stereo partly drawn) (H-SNTS[ξE](X1)-NH2), which Activity (B16-F10) is on record?
Its Activity is 4%.

With `CC[C@@H]1NC(=O)[C@H](CCCNC(=N)N)NC(=O)[C@](C)(NC(=O)C(C)C)CCCCNC(=O)[C@@H](c2ccccc2)NC1=O` (Isobutyryl-[d(αMeK)]R[Abu][dPhg]; lactam 1-C) as the compound, how does the IC50 [2] read?
Its IC50 is 0.9 nM.

For `CC[C@@H]1NC(=O)[C@H](CCCNC(=N)NC)NC(=O)[C@](C)(NC(=O)C(C)C)CCNC(=O)[C@@H](c2ccccc2)NC1=O` (Isobutyryl-[dαMeDab][Arg(Me)][Abu][dPhg]; lactam 1-C), which IC50 [2] is on record?
The IC50 was 0.9 nM.

With `CC(C)CCC(=O)N1CCC[C@H]1C(=O)N[C@H](C(=O)N[C@@H](CN)C(=O)N[C@@H](CC1CCCC1)C(=O)N1CCC[C@H]1c1nc(-c2ccccc2)cn1CC1CCCCC1)C(C)C` ({Pentanoyl(4-Me)}-PV[Dap][Ala(cPent)]-X2) as the compound, how does the Ki [3] read?
The Ki was 23 nM.
